# Source: PubChem BioAssay (NCI)
#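 Interpolation was linear, between the two tested concentrations surrounding the appropriate level; five concentrations were tested over 48 hours in 96-well plates. GI50 is the concentration that inhibits growth by half. At the TGI there is no net growth.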
# What was measured:
# Assay in all cases: NCI-60 cell line screen, 48 h
# A498 renal = test system: A498 renal
# SF-268 CNS = test system: SF-268 CNS
# HL-60(TB) leukemia = test system: HL-60(TB) leukemia
# UACC-62 melanoma = test system: UACC-62 melanoma
# SNB-19 CNS = test system: SNB-19 CNS
# HCC-2998 colon = test system: HCC-2998 colon
# SW-620 colon = test system: SW-620 colon
# 786-0 renal = test system: 786-0 renal
# CCRF-CEM leukemia = test system: CCRF-CEM leukemia
# PC-3 prostate = test system: PC-3 prostate
Compound,TGI (A498 renal) [µM],TGI (SF-268 CNS) [µM],TGI (HL-60(TB) leukemia) [µM],TGI (UACC-62 melanoma) [µM],TGI (SNB-19 CNS) [µM],TGI (HCC-2998 colon) [µM],TGI (SW-620 colon) [µM],TGI (786-0 renal) [µM],TGI (CCRF-CEM leukemia) [µM],GI50 (A498 renal) [µM],GI50 (SF-268 CNS) [µM],GI50 (HL-60(TB) leukemia) [µM],GI50 (UACC-62 melanoma) [µM],GI50 (SNB-19 CNS) [µM],GI50 (HCC-2998 colon) [µM],GI50 (SW-620 colon) [µM],GI50 (786-0 renal) [µM],GI50 (PC-3 prostate) [µM],TGI (PC-3 prostate) [µM],GI50 (CCRF-CEM leukemia) [µM]
CN=c1ss/c(=N\C(=S)N(C)C)n1C1CCCCC1,> 31.6,> 31.6,> 100,> 31.6,> 31.6,> 31.6,> 31.6,> 10,> 31.6,,,,,,,,,,,
CN(C)CCCNC(=O)c1cccc2nc3ccccc3nc12,39.6,39.9,,> 57.8,> 100,50.4,> 54.9,> 100,,,,,,,,,,,,
CC1=C(C(=O)Nc2cccc(C(F)(F)F)c2)C(c2ccccc2F)C(C(=O)Nc2cccc(C(F)(F)F)c2)=C(C)N1,24.3,,7.98,,25.8,7.67,22.7,19.4,12.4,,,,,,,,,,,
C=C(CS(=O)(=O)c1ccccc1)C(=O)OCC,,40,,13.8,37.9,35.1,29.2,31.9,12.2,,,,,,,,,,,
Cc1cc(C(=O)N2CCN(C)CC2)c2c(=O)n(-c3ccccc3)c(=O)n(CC(O)CN3CCN(c4ncccn4)CC3)c2n1 (configuration not stated),> 100,> 100,> 100,> 100,> 100,> 100,> 100,> 100,,> 100,> 100,> 100,> 100,> 100,> 100,> 100,> 100,,,
COc1cc(-c2nccc3[nH]c(-c4cccc5[nH]ccc45)nc23)cc(OC)c1OC,,16,< 0.01,20.9,20.6,2.28,5.13,2.92,12,,< 0.01,< 0.01,< 0.01,< 0.01,< 0.01,< 0.01,< 0.01,< 0.01,15.7,< 0.01
O=C(O)CC1C(=O)OC2C3COC(=O)c4cc(O)c(O)c(O)c4-c4c(cc(O)c(O)c4O)C(=O)OC2C(OC(=O)c2cc(O)c(O)c4c2C1C(O)C(=O)O4)C(OC(=O)c1cc(O)c(O)c(O)c1)O3 (configuration not stated),> 100,> 100,30.4,,> 100,> 100,> 100,56.5,37,,,,,,,,,,> 100,
COc1cc(C2CC(=O)c3c(C)nn(-c4nc5ccccc5[nH]4)c3C2)cc(OC)c1OC (configuration not stated),> 100,> 100,,> 100,,> 100,> 100,> 100,> 100,7.06,8.01,,14.6,,> 100,> 100,3.34,> 100,> 100,> 100
COc1ccc2oc(-c3cc4cc(OC)ccc4o3)cc2c1,,> 100,> 100,> 100,> 100,> 100,> 100,> 100,> 100,,,,,,,,,,,
COC(=O)[C@H]1CC(=O)C=C2CCCC21 (some centres not stated),> 100,> 100,> 100,> 100,> 100,> 100,> 100,> 100,> 100,,,,,,,,,,,
O=C(N/N=C/c1ccncc1)c1ccc(C(F)(F)F)nc1Nc1cccc(C(F)(F)F)c1,10,7.36,8.2,8.54,11.8,8.94,12.8,7.55,,2.91,2.55,1.82,2.57,2.67,2.15,2.66,1.29,,,
O=[N+]([O-])c1ccc(N/N=C/c2ccccc2O)nc1,> 100,> 100,,11.6,> 100,> 100,> 100,> 100,,63.4,1.26,,2.61,3.88,1.46,1.14,3.03,4.3,> 100,
O=C(O)c1ccccc1-c1ccccc1C(=O)Nc1ccc2c(c1)Cc1ccccc1-2,44,> 100,,32,> 100,33.4,> 100,> 100,,,,,,,,,,,> 100,
CCOC(=O)c1c(C(F)(F)F)n([O-])c2ccc(Cl)cc2[n+]1=O,3.93,3.95,4.07,3.71,19.2,,3.74,3.71,3.99,1.73,2.02,1.93,1.72,6.21,,1.87,2.11,1.45,3.02,1.77
CC(C)(C)C1CCP(=O)(c2ccccc2)CC1 (configuration not stated),> 100,,> 100,> 100,> 100,> 100,> 100,> 100,> 100,,,,,,,,,,,
Cc1ccc(C)c(NC(=O)C(=O)CC(=O)c2cccc3ccccc23)c1,> 100,> 100,> 100,> 100,> 100,> 100,> 100,> 100,> 100,,,,,,,,,,,
Cc1cn(C2CC(N=[N+]=[N-])C(CO)O2)c(=O)[nH]c1=O (configuration not stated),,,> 1000,> 1000,,> 1000,> 1000,> 1000,> 1000,,,,,,> 1000,> 1000,> 1000,,> 1000,
Cc1ccc(-n2nnc3c(sc4ccccc43)c2=O)cc1,> 100,71,> 100,> 100,> 100,> 100,> 100,12.1,,30.9,4.62,> 100,51.7,6.22,68.7,26.2,3.4,7.73,> 100,
CCOC(=O)C/C(N)=C(\C#N)C(=O)OCC,> 100,> 100,> 100,> 100,> 100,,> 100,> 100,> 100,,,,,,,,,,,
